Target: Recombinant Human Poly(ADP-Ribose) Polymerase (PARP), PARP-1 (Homo sapiens (Human), UniProt P09874)
Settings: read-out: PARP-1 (Ki); Table 1; text calls the values EC50s

Chain of Recombinant Human Poly(ADP-Ribose) Polymerase (PARP), PARP-1 (P09874 whole entry): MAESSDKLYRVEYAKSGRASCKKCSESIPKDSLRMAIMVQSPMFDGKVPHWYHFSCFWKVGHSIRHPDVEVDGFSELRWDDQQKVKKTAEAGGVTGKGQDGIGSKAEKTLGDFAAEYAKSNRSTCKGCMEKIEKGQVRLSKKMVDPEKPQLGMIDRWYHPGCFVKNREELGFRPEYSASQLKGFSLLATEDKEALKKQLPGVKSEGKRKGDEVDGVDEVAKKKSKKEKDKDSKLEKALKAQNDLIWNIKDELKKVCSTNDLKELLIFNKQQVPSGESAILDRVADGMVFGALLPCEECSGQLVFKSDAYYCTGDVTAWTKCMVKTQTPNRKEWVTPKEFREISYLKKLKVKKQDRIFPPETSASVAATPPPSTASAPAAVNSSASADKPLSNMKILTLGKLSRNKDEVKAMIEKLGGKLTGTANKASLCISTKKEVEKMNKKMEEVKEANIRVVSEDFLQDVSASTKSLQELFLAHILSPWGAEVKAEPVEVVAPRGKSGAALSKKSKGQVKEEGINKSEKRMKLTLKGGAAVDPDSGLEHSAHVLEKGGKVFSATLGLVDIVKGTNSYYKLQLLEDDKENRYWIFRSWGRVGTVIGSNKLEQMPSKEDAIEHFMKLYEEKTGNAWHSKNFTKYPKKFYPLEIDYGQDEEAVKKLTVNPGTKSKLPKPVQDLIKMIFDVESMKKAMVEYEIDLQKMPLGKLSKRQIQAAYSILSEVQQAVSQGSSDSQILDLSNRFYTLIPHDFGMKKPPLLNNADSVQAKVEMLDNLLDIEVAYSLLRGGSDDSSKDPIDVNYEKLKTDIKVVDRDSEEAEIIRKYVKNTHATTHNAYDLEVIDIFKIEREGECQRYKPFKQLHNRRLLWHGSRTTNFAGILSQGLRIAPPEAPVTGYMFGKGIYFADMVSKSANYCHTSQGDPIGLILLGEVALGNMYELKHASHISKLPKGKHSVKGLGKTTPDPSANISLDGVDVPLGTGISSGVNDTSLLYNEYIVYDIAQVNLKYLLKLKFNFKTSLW

SMILES	Ki [nM]
O=C(Nc1cccc(Cc2n[nH]c(=O)c3c2CCCC3)c1)c1ncccc1O [Example 212, 3-hydroxy-N-(3-((4-oxo-3,4,5,6,7,8-hexahydrophthalazin-1-yl)methyl)phenyl)pyridine-2-carboxamide]	65
O=C(COc1ccccc1)Nc1cccc(CCc2n[nH]c(=O)c3c2CCCC3)c1 [Example 263, N-(3-(2-(4-oxo-3,4,5,6,7,8-hexahydrophthalazin-1-yl)ethyl)phenyl)-2-phenoxyacetamide]	144
O=C(Nc1nccs1)c1cccc(Cc2n[nH]c(=O)c3c2CCCC3)c1 [Example 319, 3-((4-oxo-3,4,5,6,7,8-hexahydrophthalazin-1-yl)methyl)-N-1,3-thiazol-2-ylbenzamide]	94
O=C(Nc1cccc(CCc2n[nH]c(=O)c3c2CCCC3)c1)C1CCCN(C(=O)OCc2ccccc2)C1 (stereo not shown) [Example 322, benzyl 3-(((3-(2-(4-oxo-3,4,5,6,7,8-hexahydrophthalazin-1-yl)ethyl)phenyl)amino)carbonyl)piperidine-1-carboxylate]	556
Cc1ccc(NC(=O)c2cccc(Cc3n[nH]c(=O)c4c3CCCC4)c2)cc1Br [Example 344, N-(3-bromo-4-methylphenyl)-3-((4-oxo-3,4,5,6,7,8-hexahydrophthalazin-1-yl)methyl)benzamide]	194
COc1ccc(C(=O)CCC(=O)Nc2cc(Cc3n[nH]c(=O)c4c3CCCC4)ccc2F)cc1 [Example 289, N-(2-fluoro-5-((4-oxo-3,4,5,6,7,8-hexahydrophthalazin-1-yl)methyl)phenyl)-4-(4-methoxyphenyl)-4-oxobutanamide]	0.7
O=C(Nc1cccc(Cc2n[nH]c(=O)c3c2CCCC3)c1)c1ccccc1Nc1ccccc1 [Example 240, 2-anilino-N-(3-((4-oxo-3,4,5,6,7,8-hexahydrophthalazin-1-yl)methyl)phenyl)benzamide]	285
Nc1cccc(CCc2n[nH]c(=O)c3c2CCCC3)c1 [Example 260, 4-(2-(3-aminophenyl)ethyl)-5,6,7,8-tetrahydrophthalazin-1(2H)-one]	243
Cc1ccnc(SCC(=O)Nc2cccc(Cc3n[nH]c(=O)c4c3CCCC4)c2)n1 [Example 167, 2-((4-methylpyrimidin-2-yl)thio)-N-(3-((4-oxo-3,4,5,6,7,8-hexahydrophthalazin-1-yl)methyl)phenyl)acetamide]	56
O=C(NCCc1ccccc1Cl)c1cccc(Cc2n[nH]c(=O)c3c2CCCC3)c1 [Example 388, N-(2-(2-chlorophenyl)ethyl)-3-((4-oxo-3,4,5,6,7,8-hexahydrophthalazin-1-yl)methyl)benzamide]	88
O=C(Nc1cccc(Cc2n[nH]c(=O)c3c2CCCC3)c1)c1cccc(F)c1F [Example 181, 2,3-difluoro-N-(3-((4-oxo-3,4,5,6,7,8-hexahydrophthalazin-1-yl)methyl)phenyl)benzamide]	212
C[S+]([O-])c1nccc(Cc2n[nH]c(=O)c3c2CCCC3)n1 (stereo not shown) [Example 70, 4-((2-(methylsulfinyl)pyrimidin-4-yl)methyl)-5,6,7,8-tetrahydrophthalazin-1(2H)-one]	101
O=C1CCCN1c1cccc(Cc2n[nH]c(=O)c3c2CCCC3)n1 [Example 125, 4-((6-(2-oxopyrrolidin-1-yl)pyridin-2-yl)methyl)-5,6,7,8-tetrahydrophthalazin-1(2H)-one]	47
Cn1cnc(S(=O)(=O)Nc2cccc(Cc3n[nH]c(=O)c4c3CCCC4)c2)c1 [Example 119, 1-methyl-N-(3-((4-oxo-3,4,5,6,7,8-hexahydrophthalazin-1-yl)methyl)phenyl)-1H-imidazole-4-sulfonamide]	703
O=C(Nc1cccc(Cc2n[nH]c(=O)c3c2CCCC3)c1)c1ccco1 [Example 193, N-(3-((4-oxo-3,4,5,6,7,8-hexahydrophthalazin-1-yl)methyl)phenyl)-2-furamide]	100
CS(=O)(=O)Nc1cccc(Cc2n[nH]c(=O)c3c2CCCC3)c1 [Example 114, N-(3-((4-oxo-3,4,5,6,7,8-hexahydrophthalazin-1-yl)methyl)phenyl)methanesulfonamide]	65
CC(C)NC(=O)Nc1cc(Cc2n[nH]c(=O)c3c2CCCC3)ccc1F [Example 538, N-{2-fluoro-5-[(4-oxo-3,4,5,6,7,8-hexahydrophthalazin-1-yl)methyl]phenyl}-N′-isopropylurea]	374
O=C(CNC(=O)OCc1ccccc1)Nc1cccc(CCc2n[nH]c(=O)c3c2CCCC3)c1 [Example 320, benzyl 2-oxo-2-(3-(2-(4-oxo-3,4,5,6,7,8-hexahydrophthalazin-1-yl)ethyl)phenylamino)ethylcarbamate]	165

More lines, in order of falling Ki, values ahead:

Ki [nM]	SMILES
47	CNC(=O)c1cccc(Cc2n[nH]c(=O)c3c2CCCC3)n1 [Example 80, N-methyl-6-((4-oxo-3,4,5,6,7,8-hexahydrophthalazin-1-yl)methyl)pyridine-2-carboxamide]
41	O=C(CCCc1ccccc1)Nc1cccc(Cc2n[nH]c(=O)c3c2CCCC3)c1 [Example 147, N-(3-((4-oxo-3,4,5,6,7,8-hexahydrophthalazin-1-yl)methyl)phenyl)-4-phenylbutanamide]
35	Cc1ccc(OCC(=O)Nc2cccc(Cc3n[nH]c(=O)c4c3CCCC4)c2)cc1C [Example 163, 2-(3,4-dimethylphenoxy)-N-(3-((4-oxo-3,4,5,6,7,8-hexahydrophthalazin-1-yl)methyl)phenyl)acetamide]
34	CCN(CCN(C)C)C(=O)c1cccc(Cc2n[nH]c(=O)c3c2CCCC3)c1 [Example 418, N-(2-(dimethylamino)ethyl)-N-ethyl-3-((4-oxo-3,4,5,6,7,8-hexahydrophthalazin-1-yl)methyl)benzamide]
23	O=C(NCC1CCNCC1)c1cccc(Cc2n[nH]c(=O)c3c2CCCC3)c1 [Example 63, 3-((4-oxo-3,4,5,6,7,8-hexahydrophthalazin-1-yl)methyl)-N-(piperidin-4-ylmethyl)benzamide]
22	Cc1ccccc1OCC(=O)Nc1cccc(Cc2n[nH]c(=O)c3c2CCCC3)c1 [Example 149, 2-(2-methylphenoxy)-N-(3-((4-oxo-3,4,5,6,7,8-hexahydrophthalazin-1-yl)methyl)phenyl)acetamide]
12	O=C(COc1ccc(OCc2ccccc2)cc1)Nc1cc(Cc2n[nH]c(=O)c3c2NCCC3)ccc1F [Example 481, 2-(4-(benzyloxy)phenoxy)-N-(2-fluoro-5-((5-oxo-1,2,3,4,5,6-hexahydropyrido(2,3-d)pyridazin-8-yl)methyl)phenyl)acetamide]
7	O=C(NC1CCN(C(=O)c2cccnc2)CC1)c1cc(Cc2n[nH]c(=O)c3c2NCCC3)ccc1F [Example 724, 2-fluoro-5-[(5-oxo-1,2,3,4,5,6-hexahydropyrido[2,3-d]pyridazin-8-yl)methyl]-N-[1-(pyridin-3-ylcarbonyl)piperidin-4-yl]benzamide]
6	CCN(C(C)=O)C1CCN(C(=O)c2cc(Cc3n[nH]c(=O)c4c3NCCC4)ccc2F)C1 (stereo not shown) [Example 596, N-ethyl-N-(1-{2-fluoro-5-[(5-oxo-1,2,3,4,5,6-hexahydropyrido[2,3-d]pyridazin-8-yl)methyl]benzoyl}pyrrolidine-3-yl)acetamide]
5	Cc1cnc(C(=O)Nc2cccc(Cc3n[nH]c(=O)c4c3CCCC4)c2)cn1 [Example 217, 5-methyl-N-(3-((4-oxo-3,4,5,6,7,8-hexahydrophthalazin-1-yl)methyl)phenyl)pyrazine-2-carboxamide]
4.2	O=C(c1ccc2ccccc2n1)N1CCCN(C(=O)c2cc(Cc3n[nH]c(=O)c4c3NCCC4)ccc2F)CC1 [Example 687, 8-(4-fluoro-3-{[4-(quinolin-2-ylcarbonyl)-1,4-diazepan-1-yl]carbonyl}benzyl)-2,3,4,6-tetrahydropyrido[2,3-d]pyridazin-5(1H)-one]
2	O=C(c1cc(Cc2n[nH]c(=O)c3c2NCCC3)ccc1F)N1CCN(c2ccc(F)cc2)CC1 [Example 548, 8-(4-fluoro-3-{[4-(4-fluorophenyl)piperazin-1-yl]carbonyl}benzyl)-2,3,4,6-tetrahydropyrido[2,3-d]pyridazin-5(1H)-one]
1.8	O=C(c1ccccc1)C1CCN(C(=O)c2cc(Cc3n[nH]c(=O)c4c3NCCC4)ccc2F)CC1 [Example 609, 8-{3-[(4-benzoylpiperidin-1-yl)carbonyl]-4-fluorobenzyl}-2,3,4,6-tetrahydropyrido[2,3-d]pyridazin-5(1H)-one]
1.8	CC(C)n1nnc2cc(C(=O)N3CCN(C(=O)c4cc(Cc5n[nH]c(=O)c6c5CCCC6)ccc4F)CC3)ccc21 [Example 728, 4-[4-fluoro-3-({4-[(1-isopropyl-1H-1,2,3-benzotriazol-5-yl)carbonyl]piperazin-1-yl}carbonyl)benzyl]-5,6,7,8-tetrahydrophthalazin-1(2H)-one]
1.6	O=C(c1ccccc1)N1CCN(C(=O)c2cc(Cc3n[nH]c(=O)c4c3CCCC4)ccc2F)CC1 [Example 525, 4-{3-[(4-benzoylpiperazin-1-yl)carbonyl]-4-fluorobenzyl}-5,6,7,8-tetrahydrophthalazin-1(2H)-one]
1.1	O=C(NC1CCN(C(=O)c2cc(Cc3n[nH]c(=O)c4c3NCCC4)ccc2F)CC1)c1ccco1 [Example 750, N-(1-{2-fluoro-5-[(5-oxo-1,2,3,4,5,6-hexahydropyrido[2,3-d]pyridazin-8-yl)methyl]benzoyl}piperidin-4-yl)-2-furamide]
0.9	O=C(c1cc(Cc2n[nH]c(=O)c3c2NCCC3)ccc1F)N1CCN(S(=O)(=O)c2ccccc2)CC1 [Example 562, 8-(4-fluoro-3-{[4-(phenylsulfonyl)piperazin-1-yl]carbonyl}benzyl)-2,3,4,6-tetrahydropyrido[2,3-d]pyridazin-5(1H)-one]
0.7	O=C1CNC(=O)N1c1cc(Cc2n[nH]c(=O)c3c2CCCC3)ccc1F [Example 630, 3-{2-fluoro-5-[(4-oxo-3,4,5,6,7,8-hexahydrophthalazin-1-yl)methyl]phenyl}imidazolidine-2,4-dione]
0.6	O=C(c1ccc(O)nc1)N1CCN(C(=O)c2cc(Cc3n[nH]c(=O)c4c3NCCC4)ccc2F)CC1 [Example 649]
